Results: US5220018A, “Cholecystokinin antagonists” (Merck & Co., Inc., priority 1992, dated 1993)
Where two headings read alike, the source gives them in different places. Non-standard residues stand in square brackets, D forms with d. Residues, ends and D or L forms follow the SMILES beside them. *: point of attachment. sY = N[C@@H](Cc1ccc(OS(=O)(=O)O)cc1)C(=O)O; Cbz = O=C(OCc1ccccc1)*

Tests used:
CCK Receptor (Pancreas) = target: T1, CCK Receptor (Pancreas) (Rattus norvegicus, UniProt P30551); test: biochemical; format: binding, Male Sprague-Dawley rats; conditions: rat pancreas membranes, 125I-CCK-8 50 pM, 25° C., 2 hours; read-out: IC50, 125I-CCK Pancreas
T1 construct: The whole pancreas was dissected free of fat tissue and was homogenized; from tissue; host or cells: rat whole pancreas, homogenate membranes
T1 sequence (P30551 1-444): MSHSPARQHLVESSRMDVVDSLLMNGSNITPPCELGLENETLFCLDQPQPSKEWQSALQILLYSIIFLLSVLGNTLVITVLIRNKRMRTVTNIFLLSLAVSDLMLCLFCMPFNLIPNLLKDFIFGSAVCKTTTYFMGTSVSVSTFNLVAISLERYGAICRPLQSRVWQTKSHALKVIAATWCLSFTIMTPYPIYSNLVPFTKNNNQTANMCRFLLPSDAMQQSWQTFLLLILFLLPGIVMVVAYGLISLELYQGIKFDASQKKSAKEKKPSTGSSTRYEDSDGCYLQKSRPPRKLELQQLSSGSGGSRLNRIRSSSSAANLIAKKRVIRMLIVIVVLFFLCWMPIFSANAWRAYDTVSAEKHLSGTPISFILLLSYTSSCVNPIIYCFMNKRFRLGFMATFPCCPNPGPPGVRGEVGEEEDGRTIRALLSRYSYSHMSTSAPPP
Protocol: 1. CCK Receptor Binding (Pancreas)
CCK-8 sulphated was radiolabelled with ^125 I-Bolton Hunter reagent (2000 Ci/mmole). Receptor binding was performed according to Chang and Lotti (Proc. Natl. Acad. Sci. 83, 4923-4926, 1986) with minor modifications.
Male Sprague-Dawley rats (150-200 g) were sacrificed by decapitation. The whole pancreas was dissected free of fat tissue and was homogenized in 25 volumes of ice-cold 10 mM Hepes buffer with 0.1% soya bean trypsin inhibitor (pH 7.4 at 25° C.) with a Kinematica Polytron. The homogenates were centrifuged at 47,800 g for 10 min. Pellets were resuspended in 10 volumes of binding assay buffer (20 mM Hepes, 1 mM EGTA, 5 mM MgCl2, 150 mM NaCl, bacitracin 0.25 mg/ml, soya bean trypsin inhibitor 0.1 mg/ml, and bovine serum albumin 2 mg/ml, pH 6.5 at 25° C.) using a teflon homogenizer, 15 strokes at 500 rpm. The homogenate was further diluted in binding assay buffer to give a final concentration of 0.5 mg original wet weight/1 ml buffer. […] All assays were run in duplicate. The reaction mixtures were incubated at 25° C. for 2 hours and the reaction terminated by rapid filtration (Brandell 24 well cell harvester) over Whatman GF/C filters, washing 3×4 mls with ice-cold 100 mM NaCl. The radioactivity on the filters was counted with a LKB gamma counter.
(§1) Drug displacement studies were performed with at least 10 concentrations of compounds of formula 1 and the IC50 values were determined by regression analysis.

CCK Receptor (Brain) = target: T2, CCK Receptor (Brain) (Cavia porcellus, UniProt H0VZC5); test: CCK Receptor Binding (Brain), inhibition of 125I-CCK-8 binding; design: species or system Male Hartley guinea pigs
T2 construct: the cortex was removed and homogenized in 25 mL ice-cold 0.32M sucrose; from tissue; host or cells: guinea pig cerebral cortex, P2 membrane pellet
T2 sequence (H0VZC5 1-426): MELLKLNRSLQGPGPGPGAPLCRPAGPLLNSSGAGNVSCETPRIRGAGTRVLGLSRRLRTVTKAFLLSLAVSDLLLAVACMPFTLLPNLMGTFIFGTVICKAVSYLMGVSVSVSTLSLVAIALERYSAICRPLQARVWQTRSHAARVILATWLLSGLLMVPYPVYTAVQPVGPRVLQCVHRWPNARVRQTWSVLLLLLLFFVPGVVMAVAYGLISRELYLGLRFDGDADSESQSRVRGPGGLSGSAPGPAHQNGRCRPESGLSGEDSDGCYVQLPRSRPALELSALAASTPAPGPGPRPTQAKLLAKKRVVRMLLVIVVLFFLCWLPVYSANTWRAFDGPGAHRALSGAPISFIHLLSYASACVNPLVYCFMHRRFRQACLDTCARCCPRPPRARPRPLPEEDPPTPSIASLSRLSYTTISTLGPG
Protocol: 2. CCK Receptor Binding (Brain)
CCK-8 sulphated was radiolabelled and the binding was performed according to the description for the pancreas method with minor modifications.
Male Hartley guinea pigs (300-500 g) were sacrificed by decapitation and the cortex was removed and homogenized in 25 mL ice-cold 0.32M sucrose. The homogenates were centrifuged at 1000 g for 10 minutes and the resulting supernatant was recentrifuged at 20,000 g for 20 minutes. […] All assays were run in duplicate. The reaction mixtures were incubated at 25° C. for 2 hours and then the reaction was terminated on Whatman GF/C filters by rapid filtration (Brandell 24 well cell Harvester) with 3×5 ml washes of cold 100 mM NaCl. The radioactivity on the filters was then counted with a LKB gamma counter.
as §1

Gastrin Receptor = target: T3, Gastrin Receptor (Cavia porcellus, UniProt H0VZC5); test: Gastrin Receptor Binding in Guinea Pig Gastric Glands; design: species or system guinea pigs
T3 construct: from tissue; host or cells: guinea pig gastric mucosal glands (collagenase-dispersed)
T3 sequence (H0VZC5 1-426): T2 sequence (H0VZC5 1-426)
Protocol: Gastrin antagonist activity of compounds of Formula I is determined using the following assay.
A. Gastrin Receptor Binding in Guinea Pig Gastric Glands
Preparation of guinea pig gastric mucosal glands
Guinea pig gastric mucosal glands were prepared by the procedure of Chang et al., Science 230, 177-179 (1985) with slight modification. Gastric mucosa from guinea pigs (300-500 g body weight, male Hartley) were isolated by scraping with a glass slide after washing stomachs in ice-cold, aerated buffer consisting of the following: 130 mM NaCl, 12 mM NaHCO3, 3 mM NaH2 PO4, 3 mM Na2 HPO4, 3 mM K2 HPO4, 2 mM MgSO4, 1 mM CaCl2, 5 mM glucose and 4 mM L-glutamine, 50 mM HEPES, 0.25 mg/ml bacitracin, 0.10 mg/ml soya bean trypsin inhibitor, 0.1 mg/ml bovine serum albumin, at pH 6.5, and then incubated in a 37° C. shaking water bath for 40 minutes in buffer containing 1 mg/ml collagenase and bubbled with 95% O2 and 5% CO2. The tissues were passed twice through a 5 ml syringe to liberate the gastric glands, and then filtered through Nitex #202 gauge nylon mesh. The filtered glands were centrifuged at 272 g for 5 minutes and washed twice by resuspension in 25 ml buffer and centrifugation.
The washed guinea pig gastric glands prepared as above were resuspended in 25 ml of standard buffer. […] The radioactivity on the filters was measured using a LKB gamma counter.

gastrin = conditions: in vitro, literature; cited from earlier work
CCK-B receptors = conditions: literature, Bock et al. 1989; cited from earlier work
CCK receptor = conditions: literature; cited from earlier work
[1] = guinea pig cortex membranes, 125I-CCK-8 50 pM, 25° C., 2 hours, read-out: IC50, 125I-CCK Brain

SMILES	IC50 (CCK Receptor (Pancreas))	IC50 (CCK Receptor (Brain); [1])	also measured
CC(C)CN1C(=O)[C@H](NC(=O)Nc2cccc(-c3nnn[nH]3)c2)N=C(c2ccccc2)c2ccccc21 [Example 2, N-{1,3-Dihydro-1-[2-methyl]propyl-2-oxo-5-phenyl-1H-1,4-benzodiazepin-3-yl}-N'-{[3-(1H-tetrazol-5-yl)phenyl]urea}]	1400 nM	0.1 nM	IC50 (Gastrin Receptor; guinea pig gastric glands, method: 125I-gastrin 0.1 nM, 25° C., 30 minutes, read-out: IC50, 125I-CCK Gastric Glands): 0.24 nM
CCCN(CCC)C(=O)C(CCC(=O)O)NC(=O)c1ccccc1 (centres unmarked) [proglumide]	–	–	gastrin antagonism in words (gastrin): very weak in vitro antagonists
CN1C(=O)[C@H](NC(=O)Nc2cccc(-c3nnn[nH]3)c2)N=C(c2ccccc2)c2ccccc21 [Example 1, N-{1,3-Dihydro-1-methyl-2-oxo-5-phenyl-1H-1,4-benzodiazepin-3-yl}-N'-{[3-(1H-tetrazol-5-yl)phenyl]urea}]	400 nM	–	IC50 (CCK Receptor (Brain)): 1 nM; IC50 (Gastrin Receptor): 0.7 nM
Cc1cccc(NC(=O)N[C@@H]2N=C(c3ccccc3)c3ccccc3N(C)C2=O)c1 [(R)-N-(2,3-dihydro-1-methyl-2-oxo-5-phenyl-1H-1,4-benzodiazepin-3-yl)-N^1-(3-methylphenyl) urea]	–	–	CCK-B receptor antagonism in words (CCK-B receptors): potent and selective antagonist of CCK-B receptors
CSCC[C@H](NC(=O)[C@H](Cc1ccc(OS(=O)(=O)O)cc1)NC(=O)OCc1ccccc1)C(=O)NCC(=O)N[C@@H](Cc1c[nH]c2ccccc12)C(=O)N[C@@H](CCSC)C(=O)N[C@@H](CC(=O)O)C(N)=O [Cbz-Tyr(SO3 H)-Met-Gly-Trp-Met-Asp-NH2] (Cbz-[sY]MGWMD-NH2)	–	–	CCK receptor activity in words (CCK receptor): partial agonist
CN1C(=O)[C@H](NC(=O)Nc2cccc(/C=C/C(=O)O)c2)N=C(c2ccccc2)c2ccccc21 [Example 32, N-{1,3-Dihydro-1-methyl-2-oxo-5-phenyl-1H-1,4-benzodiazepin-3-yl}-N'-{[3-(trans-carboxyethylene)phenyl]urea}]	12 nM	8.9 nM	–
CCCC(=O)Nc1nc2c(ncn2[C@@H]2O[C@@H]3COP(=O)(O)O[C@H]3[C@H]2OC(=O)CCC)c(=O)[nH]1 [dibutyryl cyclic GMP]	–	–	CCK receptor activity in words (CCK receptor): the most potent
CC(C)S(=O)(=O)NC(=O)c1cccc(NC(=O)N[C@@H]2N=C(c3ccccc3)c3ccccc3N(C)C2=O)c1 [Example 24, N-{1,3-Dihydro-1-methyl-2-oxo-5-phenyl-1H-1,4-benzodiazepin-3-yl}-N'-{[3-(N-(2-propylsulfonyl)carboxamido)phenyl]urea}]	2400 nM	7.6 nM	–
